Test results as given in ChEMBL document CHEMBL1268821, “Inhibitors of the tyrosine kinase EphB4. Part 3: identification of non-benzodioxole-based kinase inhibitors” (Bioorg Med Chem Lett, 2010).

Columns and labels:
[1] = AUC (0 to 24 hrs) in nude mouse at 100 mg/kg, po; format: ADME, organism-based; set-up: time < 24 hr, dose 100 mg/kg, route oral; details: plasma
[2] = Plasma concentration in nude mouse at 100 mg/kg, po measured at 1 hr; format: ADME, organism-based; set-up: dose 100 mg/kg, route oral
[3] = Plasma concentration in nude mouse at 100 mg/kg, po measured at 4 hrs; format: ADME, organism-based; set-up: dose 100 mg/kg, route oral
[4] = Plasma concentration in nude mouse at 100 mg/kg, po measured at 24 hrs; format: ADME, organism-based; set-up: dose 100 mg/kg, route oral
Rattus norvegicus = assay: Hepatic blood flow in Han Wistar rat at […], iv and 5 mg/kg, po; format: ADME, organism-based, Liver; details: in vivo
[5] = Volume of distribution at steady state in Han Wistar rat at […], iv and 5 mg/kg, po; format: ADME, organism-based; details: in vivo, read-out: Vdss
[6] = Bioavailability in Han Wistar rat at […], iv and 5 mg/kg, po; format: ADME, organism-based; details: in vivo

Compound: CN(c1ccnc(Nc2cc(N3CCOCC3)cc(N3CCOCC3)c2)n1)c1cccc2[nH]ncc12
- AUC(0-t) at 24 h [1]: 48.7 µM·h
- concentration at 1 h [2]: 11000 nM
- concentration at 4 h [3]: 1900 nM
- concentration at 24 h [4]: 1800 nM
- QH (Rattus norvegicus): 19%
- Vd [5]: 0.8 L/kg
- bioavailability [6]: 65%
